According to PMC10855908 (International Journal of Molecular Sciences, 2024):
No end group written: not given here.

How the values were obtained:
C. perfringens MLG0712 [1] = assay type: cell-based, Clostridium perfringens
C. perfringens MLG6907 [2] = assay type: cell-based, Clostridium perfringens
C. perfringens MLG5806 [3] = assay type: cell-based, Clostridium perfringens
C. perfringens MLG4206 [4] = assay type: cell-based, Clostridium perfringens
C. perfringens MLG1108 [5] = assay type: cell-based, Clostridium perfringens
C. perfringens MLG2919 [6] = assay type: cell-based, Clostridium perfringens
C. perfringens MLG7307 [7] = assay type: cell-based, Clostridium perfringens
C. perfringens MLG1619 [8] = assay type: cell-based, Clostridium perfringens
C. perfringens MLG4201 [9] = assay type: cell-based, Clostridium perfringens
C. perfringens MLG1108 [10] = assay type: cell-based, Clostridium perfringens; remark: listed apart in the source
C. perfringens MLG3406 [11] = assay type: cell-based, Clostridium perfringens
C. perfringens MLG5719 [12] = assay type: cell-based, Clostridium perfringens
C. perfringens MLG1819 [13] = assay type: cell-based, Clostridium perfringens
C. perfringens MLG4201 [14] = assay type: cell-based, Clostridium perfringens; remark: listed apart in the source
C. perfringens MLG6907 [15] = assay type: cell-based, Clostridium perfringens; remark: listed apart in the source
C. perfringens MLG0418 [16] = assay type: cell-based, Clostridium perfringens
C. perfringens MLG7309 [17] = assay type: cell-based, Clostridium perfringens
C. perfringens MLG7009 [18] = assay type: cell-based, Clostridium perfringens
C. perfringens MLG7814 [19] = assay type: cell-based, Clostridium perfringens
C. perfringens MLG2314 [20] = assay type: cell-based, Clostridium perfringens
C. perfringens MLG0712 [21] = assay type: cell-based, Clostridium perfringens; remark: listed apart in the source
C. perfringens MLG2919 [22] = assay type: cell-based, Clostridium perfringens; remark: listed apart in the source
C. perfringens MLG4206 [23] = assay type: cell-based, Clostridium perfringens; remark: listed apart in the source
C. perfringens MLG7009 [24] = assay type: cell-based, Clostridium perfringens; remark: listed apart in the source
C. perfringens MLG7309 [25] = assay type: cell-based, Clostridium perfringens; remark: listed apart in the source
C. perfringens MLG0618 [26] = assay type: cell-based, Clostridium perfringens
C. perfringens MLG2203 [27] = assay type: cell-based, Clostridium perfringens
C. perfringens MLG2314 [28] = assay type: cell-based, Clostridium perfringens; remark: listed apart in the source
C. perfringens MLG5806 [29] = assay type: cell-based, Clostridium perfringens; remark: listed apart in the source
C. perfringens MLG1619 [30] = assay type: cell-based, Clostridium perfringens; remark: listed apart in the source
C. perfringens MLG3406 [31] = assay type: cell-based, Clostridium perfringens; remark: listed apart in the source
C. perfringens MLG3111 [32] = assay type: cell-based, Clostridium perfringens
C. perfringens MLG1819 [33] = assay type: cell-based, Clostridium perfringens; remark: listed apart in the source
C. perfringens MLG5719 [34] = assay type: cell-based, Clostridium perfringens; remark: listed apart in the source
C. perfringens MLG7307 [35] = assay type: cell-based, Clostridium perfringens; remark: listed apart in the source
C. perfringens MLG2203 [36] = assay type: cell-based, Clostridium perfringens; remark: listed apart in the source
C. perfringens MLG3111 [37] = assay type: cell-based, Clostridium perfringens; remark: listed apart in the source
C. perfringens MLG0618 [38] = assay type: cell-based, Clostridium perfringens; remark: listed apart in the source
C. perfringens MLG0418 [39] = assay type: cell-based, Clostridium perfringens; remark: listed apart in the source
C. perfringens MLG7814 [40] = assay type: cell-based, Clostridium perfringens; remark: listed apart in the source
[41] = test system: Campylobacter coli ATCC 33559; settings: ATCC 33559, 24 h
C. coli ATCC33559 = settings: ATCC33559, 24 h, 200 μg/mL

Substance: Nisin (ITSISLCTPGCKTGALMGCNMKTATCHCSIHVSK; thioether (positions not given here); not fully specified (some residues, bridges); UniProt P13068 24-57, looked up)
- MIC (C. perfringens MLG0712 [1]): 0.39 µg/mL
- MIC (C. perfringens MLG6907 [2]): 1.56 µg/mL
- MIC (C. perfringens MLG5806 [3]): 1.56 µg/mL
- MIC (C. perfringens MLG4206 [4]): 1.56 µg/mL
- Inhibition halos (C. perfringens MLG1108 [5]): 16 mm
- Inhibition halos (C. perfringens MLG2919 [6]): 21 mm
- Inhibition halos (C. perfringens MLG7307 [7]): 20 mm
- MIC (C. perfringens MLG1619 [8]): 0.19 µg/mL
- Inhibition halos (C. perfringens MLG4201 [9]): 18 mm
- MIC (C. perfringens MLG1108 [10]): 0.78 µg/mL
- Inhibition halos (C. perfringens MLG3406 [11]): 19 mm
- Inhibition halos (C. perfringens MLG5719 [12]): 19 mm
- MIC (C. perfringens MLG1819 [13]): 0.39 µg/mL
- MIC (C. perfringens MLG4201 [14]): 0.78 µg/mL
- Inhibition halos (C. perfringens MLG6907 [15]): 23 mm
- Inhibition halos (C. perfringens MLG0418 [16]): 23 mm
- MIC (C. perfringens MLG7309 [17]): 0.78 µg/mL
- MIC (C. perfringens MLG7009 [18]): 1.56 µg/mL
- Inhibition halos (C. perfringens MLG7814 [19]): 23 mm
- MIC (C. perfringens MLG2314 [20]): 1.56 µg/mL
- Inhibition halos (C. perfringens MLG0712 [21]): 17 mm
- MIC (C. perfringens MLG2919 [22]): 1.56 µg/mL
- Inhibition halos (C. perfringens MLG4206 [23]): 25 mm
- Inhibition halos (C. perfringens MLG7009 [24]): 20 mm
- Inhibition halos (C. perfringens MLG7309 [25]): 17 mm
- Inhibition halos (C. perfringens MLG0618 [26]): 14 mm
- Inhibition halos (C. perfringens MLG2203 [27]): 24 mm
- Inhibition halos (C. perfringens MLG2314 [28]): 20 mm
- Inhibition halos (C. perfringens MLG5806 [29]): 19 mm
- Inhibition halos (C. perfringens MLG1619 [30]): 20 mm
- MIC (C. perfringens MLG3406 [31]): 3.12 µg/mL
- MIC (C. perfringens MLG3111 [32]): 0.39 µg/mL
- Inhibition halos (C. perfringens MLG1819 [33]): 19 mm
- MIC (C. perfringens MLG5719 [34]): 1.56 µg/mL
- MIC (C. perfringens MLG7307 [35]): 0.78 µg/mL
- MIC (C. perfringens MLG2203 [36]): <0.09 µg/mL
- Inhibition halos (C. perfringens MLG3111 [37]): 27 mm
- MIC (C. perfringens MLG0618 [38]): 0.39 µg/mL
- MIC (C. perfringens MLG0418 [39]): 1.56 µg/mL
- MIC (C. perfringens MLG7814 [40]): 3.12 µg/mL

Substance: MGAIAKLVAKFGWPIVKKYYKQIMQFIGEGWAINKIIEWIKKHI [Enterocin L50A]
- MIC [41]: 25 µg/mL
- Inhibition halos (C. coli ATCC33559): 10 mm
